Experimental data from PubChem BioAssay (NCI).
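Values below derive from 48-hour exposures of cells grown in 96-well plates, with endpoints linearly interpolated between the two concentrations bracketing the appropriate inhibition level. TGI: concentration producing complete growth inhibition.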

Columns and labels:
Assay in all cases: NCI anticancer screen, dose series, 48 h
HCC-2998 colon = tested on: HCC-2998 colon
HS 578T breast = tested on: HS 578T breast
SK-MEL-5 melanoma = tested on: SK-MEL-5 melanoma
NCI-H522 lung = tested on: NCI-H522 lung
SNB-75 CNS = tested on: SNB-75 CNS
MALME-3M melanoma = tested on: MALME-3M melanoma
T-47D breast = tested on: T-47D breast
NCI/ADR-RES ovarian = tested on: NCI/ADR-RES ovarian
COLO 205 colon = tested on: COLO 205 colon
TK-10 renal = tested on: TK-10 renal
SF-539 CNS = tested on: SF-539 CNS
CCRF-CEM leukemia = tested on: CCRF-CEM leukemia
HOP-62 NSCLC = tested on: HOP-62 NSCLC
MDA-N = tested on: MDA-N
A498 renal = tested on: A498 renal
OVCAR-8 ovarian = tested on: OVCAR-8 ovarian
MCF7 breast = tested on: MCF7 breast
OVCAR-5 ovarian = tested on: OVCAR-5 ovarian
RPMI-8226 leukemia = tested on: RPMI-8226 leukemia
NCI-H23 lung = tested on: NCI-H23 lung

Row | SMILES | TGI (HCC-2998 colon) [µM] | TGI (HS 578T breast) [µM] | TGI (SK-MEL-5 melanoma) [µM] | TGI (NCI-H522 lung) [µM] | TGI (SNB-75 CNS) [µM] | TGI (MALME-3M melanoma) [µM] | TGI (T-47D breast) [µM] | TGI (NCI/ADR-RES ovarian) [µM] | TGI (COLO 205 colon) [µM] | TGI (TK-10 renal) [µM] | TGI (SF-539 CNS) [µM] | TGI (CCRF-CEM leukemia) [µM] | TGI (HOP-62 NSCLC) [µM] | TGI (MDA-N) [µM] | TGI (A498 renal) [µM] | TGI (OVCAR-8 ovarian) [µM] | TGI (MCF7 breast) [µM] | TGI (OVCAR-5 ovarian) [µM] | TGI (RPMI-8226 leukemia) [µM] | TGI (NCI-H23 lung) [µM]
1 | O=C(O)c1ccccc1/C=C1/Cc2ccc3c(c2C1=O)CCC3 | 72.1 | > 100 | 46.2 | > 100 | > 100 | > 100 | > 100 | > 100 | 36.3 | > 100 | 43.6 | > 100 | > 100 | > 100 | > 100 | > 100 | > 100 | > 100 | 57.4 | 96
2 | O=C1CCC2(CC1CCS(=O)c1ccccc1)OCCO2 (stereo not given) | > 100 | > 100 | > 100 | > 100 | > 100 | > 100 | > 100 | > 100 | > 100 | > 100 | > 100 | > 100 | > 100 | > 100 | > 100 | > 100 | > 100 | > 100 | > 100 | > 100
3 | Cc1cccc2c(NCCN(C)C)c3cccc(C(=O)NCCN(C)C)c3nc12 | 1.33 | 1.82 | 0.962 | 0.114 | 0.953 | 1.62 | 19.7 | 11.6 | 1.61 | 8.94 | 0.68 | 0.813 | 3.93 | 0.9 | 4.06 | 10.2 | 2.85 | 14.4 | 0.21 | 1.3
4 | COc1ccc2nc3cc([N+](=O)[O-])ccc3c(Nc3ccc(S(=O)(=O)Nc4ncccn4)cc3)c2c1 | > 100 | 92.4 | > 100 | > 100 | > 100 | > 100 | > 100 | > 100 | > 100 | > 100 | > 100 | > 100 | > 100 | > 100 | > 81.3 | > 100 | > 100 | > 100 | > 66.1 | > 23.2
5 | CC(=O)C1C(=O)C(C(C)=O)C2C3C=CC(C3)C12 (stereo not given) | > 100 | > 100 | > 100 | > 100 | > 100 | > 100 | > 100 | > 100 | > 100 | > 100 | > 100 | > 100 | > 100 | > 100 | > 100 | > 100 | > 100 | > 100 | > 100 | > 100
6 | Cc1nc(-n2nc(-c3ccccc3)cc2-c2ccccc2)sc1C(=O)/C=C/c1ccc([N+](=O)[O-])cc1 | 38.1 | > 100 | > 56.4 | 66.1 | > 67 | > 100 | > 100 | > 100 | > 80.6 | > 66.8 | 18.8 | 48.1 | > 94.4 | 59.8 | > 65.8 | > 31.6 | > 100 | > 100 | 23.5 | > 54.9
7 | COCN1C(=N)C(C(=O)OC(C)(C)C)=C2C=C(O)C=CC21C (stereo not given) | 40.5 | 82.9 | 28.6 | 13.5 | 33.6 | 21.3 | 9.93 | 69 | 17.5 | 26.2 | 33.6 | 50.7 | 75.2 | 31.9 | 36.9 | 55.7 | 22.9 | 32.5 | > 100 | 30.2
8 | CC(C)=NOC(=O)OC[C@H]1O[C@@H](n2cnc3c(N)ncnc32)C(O)C1O (stereo not given in full) | > 100 | > 100 | > 100 | > 100 | > 100 | > 100 | > 100 | > 100 | > 100 | > 100 | > 100 | > 100 | > 100 | > 100 | > 100 | > 100 | > 100 | > 100 | > 100 | > 100
9 | COC(=O)c1sc2c(=O)c(C(=O)OC)c(C(=O)OC)sc2c(=O)c1C(=O)OC | > 100 | > 100 | > 100 | 65.2 | > 100 | > 100 | > 100 | > 100 | > 100 | > 100 | > 100 | > 100 | > 100 | > 100 | > 100 | > 100 | > 100 | > 100 | > 100 | > 100
10 | c1cc(C2=NCCO2)c2ccsc2c1 | > 100 | 49.8 | > 100 | > 100 | 99.1 | > 100 | > 100 | > 100 | > 100 | > 100 | > 100 | > 100 | > 100 | > 100 | > 100 | > 100 | > 100 | > 100 | > 100 | > 100
11 | CN(CCNC(=O)c1nn(-c2ccc(Cl)cc2Cl)c2c1Cc1ccccc1-2)CCNC(=O)c1nn(-c2ccc(Cl)cc2Cl)c2c1Cc1ccccc1-2 | 3.26 | 32.5 | 3.48 | 3.71 | > 48.2 | 3.42 | > 30.2 | 14.9 | 3.43 | 24.6 | 3.68 | 7.82 | > 45.8 | 4.89 | 12.9 | 4.44 | 8.31 | > 87.5 | 4.5 | 30.2
12 | Cn1c2ccccc2c2c3c(c4c5ccccc5n(C5OC(CO)C(O)C(O)C5O)c4c21)C(=O)OC3=O (stereo not given) | > 100 | > 100 | > 100 | > 100 | > 100 | > 100 | > 100 | > 100 | > 100 | > 100 | > 100 | > 100 | > 100 | > 100 | > 100 | > 100 | > 100 | > 100 | > 100 | > 100
13 | CCO[C@H]1O[C@@H]2OC3(C)CCC4[C@H](C)CCC([C@H]1C)[C@]42OO3 (stereo not given in full) | > 100 | > 100 | > 100 | > 100 | > 100 | > 100 | > 100 | > 100 | 25.5 | > 100 | > 100 | > 100 | > 100 | > 100 | > 100 | 51.7 | > 100 | > 68.6 | > 100 | > 100
14 | COC(=O)CCC(=O)c1ccc2c(c1)CC1(C2)Cc2ccc(C(=O)CCC(=O)OC)cc2C1 | > 100 | > 100 | 61.5 | > 100 | 0.172 | > 100 | > 100 | > 100 | > 100 | > 100 | > 100 | > 100 | > 100 | > 100 | > 100 | > 100 | > 100 | > 100 | > 100 | > 100
